The test system of this assay is SARS-CoV-2. Description: microbe, parasite or virus in culture. Particulars: Severe acute respiratory syndrome coronavirus 2, Vero C1008, 48 h.

`CCCc1c(OCCCCc2nnn[nH]2)ccc(C(C)=O)c1O` [TOMELUKAST]: the IC50 is greater than 20 µM. Moreover, the IC50 (read-out: pIC50 (converted)) is greater than 20 µM.
The compound `CC1(C)O[C@@H]2[C@@H](CO[C@@]3(COS(N)(=O)=O)OC(C)(C)O[C@@H]23)O1` [TOPIRAMATE] returned an IC50 greater than 20 µM. Besides, the IC50 (read-out: pIC50 (converted)) was greater than 20 µM.
For the compound `CCOC(=O)N1c2ccc(C(F)(F)F)cc2[C@@H](N(Cc2cc(C(F)(F)F)cc(C(F)(F)F)c2)C(=O)OC)C[C@H]1CC` [TORCETRAPIB], the IC50 was greater than 20 µM. For the same compound, the IC50 (read-out: pIC50 (converted)) was greater than 20 µM.
The compound `Cc1cccc(Nc2ccncc2S(=O)(=O)NC(=O)NC(C)C)c1` [TORSEMIDE] came in with an IC50 greater than 20 µM. In addition, the IC50 (read-out: pIC50 (converted)) is greater than 20 µM.
`Cc1cc(Nc2cc(N3CCN(C)CC3)nc(Sc3ccc(NC(=O)C4CC4)cc3)n2)n[nH]1` [TOZASERTIB] yielded an IC50 greater than 20 µM. Further, the IC50 (read-out: pIC50 (converted)) is greater than 20 µM.
Regarding `CC(CN(C)C)CN1c2ccccc2OCOc2ccc(Cl)cc21` (centres undefined) [TRABOXOPINE], the IC50 is greater than 20 µM. The IC50 (read-out: pIC50 (converted)) is greater than 20 µM.
As for `CCCCNc1c(C(=O)OCC)c(C)nc2c1cnn2CC` [TRACAZOLATE], the IC50 was greater than 20 µM. Moreover, the IC50 (read-out: pIC50 (converted)) is greater than 20 µM.
For the compound `CC(=O)Nc1cccc(-n2c(=O)n(C3CC3)c(=O)c3c(Nc4ccc(I)cc4F)n(C)c(=O)c(C)c32)c1` [TRAMETINIB], the IC50 is greater than 20 µM. Also, the IC50 (read-out: pIC50 (converted)) was greater than 20 µM.
`CCOC(=O)[C@H](CCc1ccccc1)N[C@@H](C)C(=O)N1[C@H](C(=O)O)C[C@H]2CCCC[C@@H]21` [TRANDOLAPRIL]: the IC50 was greater than 20 µM. The IC50 (read-out: pIC50 (converted)) is greater than 20 µM.
In turn, `NC[C@H]1CC[C@H](C(=O)O)CC1` [TRANEXAMIC ACID] displayed an IC50 greater than 20 µM. Further, the IC50 (read-out: pIC50 (converted)) is greater than 20 µM.
In the case of `O=C(O)c1cc(=O)c2ccccc2[nH]1` [TRANSTORINE], the IC50 was greater than 20 µM. Further, under “read-out: pIC50 (converted)”, the IC50 was greater than 20 µM.
The compound `C[C@@H]([C@@H](O)c1ccc(O)cc1)N1CCC(O)(c2ccccc2)CC1` [TRAXOPRODIL] displayed an IC50 greater than 20 µM. In addition, the IC50 (read-out: pIC50 (converted)) is greater than 20 µM.
In turn, `O=c1n(CCCN2CCN(c3cccc(Cl)c3)CC2)nc2ccccn12` [TRAZODONE] returned an IC50 greater than 20 µM. In addition, the IC50 (read-out: pIC50 (converted)) was greater than 20 µM.
In turn, `CC1Oc2ccccc2CC1N(C)C` (centres undefined) [TREBENZOMINE] returned an IC50 greater than 20 µM. In addition, the IC50 (read-out: pIC50 (converted)) was greater than 20 µM.
In the case of `OC[C@H]1O[C@H](O[C@H]2O[C@H](CO)[C@@H](O)[C@H](O)[C@H]2O)[C@H](O)[C@@H](O)[C@@H]1O` [TREHALOSE], the IC50 was greater than 20 µM. Also, the IC50 (read-out: pIC50 (converted)) was greater than 20 µM.
`Cn1c(=O)cc(N2CCC[C@@H](N)C2)n(Cc2cc(F)ccc2C#N)c1=O` [TRELAGLIPTIN] returned an IC50 greater than 20 µM. Further, the IC50 (read-out: pIC50 (converted)) was greater than 20 µM.
Consider `CS(=O)(=O)OC[C@H](O)[C@@H](O)COS(C)(=O)=O` [TREOSULFAN], for which the IC50 is greater than 20 µM. In addition, for the setting “read-out: pIC50 (converted)”, the IC50 was greater than 20 µM.
As for `CCCCC[C@H](O)CC[C@@H]1[C@H]2Cc3cccc(OCC(=O)O)c3C[C@H]2C[C@H]1O` [TREPROSTINIL], the IC50 was greater than 20 µM. Further, the IC50 (read-out: pIC50 (converted)) was greater than 20 µM.
`CC1=C(/C=C/C(C)=C/C=C/C(C)=C/C(=O)O)C(C)(C)CCC1` [TRETINOIN] registered an IC50 greater than 20 µM. Besides, for the setting “read-out: pIC50 (converted)”, the IC50 is greater than 20 µM.
With `CC(C)(C)C(=O)C(Oc1ccc(Cl)cc1)n1cncn1` (centres undefined) [TRIADIMEFON], the IC50 is greater than 20 µM. Under “read-out: pIC50 (converted)”, the IC50 was greater than 20 µM.
`CC1(C)O[C@@H]2C[C@H]3[C@@H]4CCC5=CC(=O)C=C[C@]5(C)[C@@]4(F)[C@@H](O)C[C@]3(C)[C@]2(C(=O)CO)O1` [TRIAMCINOLONE ACETONIDE] showed an IC50 greater than 20 µM. Moreover, the IC50 (read-out: pIC50 (converted)) was greater than 20 µM.
As to `CC(=O)OCC(=O)[C@@]1(O)[C@H](OC(C)=O)C[C@H]2[C@@H]3CCC4=CC(=O)C=C[C@]4(C)[C@@]3(F)[C@@H](O)C[C@@]21C` [TRIAMCINOLONE DIACETATE], the IC50 was greater than 20 µM. Besides, for the setting “read-out: pIC50 (converted)”, the IC50 is greater than 20 µM.
Compound `CC(C)(C)CC(=O)OCC(=O)[C@@]12OC(C)(C)O[C@@H]1C[C@H]1[C@@H]3CCC4=CC(=O)C=C[C@]4(C)[C@@]3(F)[C@@H](O)C[C@@]12C` [TRIAMCINOLONE HEXACETONIDE] displayed an IC50 greater than 20 µM. The IC50 (read-out: pIC50 (converted)) was greater than 20 µM.
As for `C[C@]12C=CC(=O)C=C1CC[C@H]1[C@@H]3C[C@@H](O)[C@](O)(C(=O)CO)[C@@]3(C)C[C@H](O)[C@@]12F` [TRIAMCINOLONE], the IC50 was greater than 20 µM. Further, the IC50 (read-out: pIC50 (converted)) is greater than 20 µM.
As for `Cc1nnc2n1-c1ccc(Cl)cc1C(c1ccccc1Cl)=NC2` [TRIAZOLAM], the IC50 is greater than 20 µM. Moreover, the IC50 (read-out: pIC50 (converted)) was greater than 20 µM.
In the case of `O=C(Nc1ccc(Br)cc1)c1cc(Br)cc(Br)c1O` [TRIBROMSALAN], the IC50 is greater than 20 µM. Moreover, for the setting “read-out: pIC50 (converted)”, the IC50 is greater than 20 µM.
Take `COP(=O)(OC)C(O)C(Cl)(Cl)Cl` (centres undefined) [TRICHLORFON]: the IC50 was greater than 20 µM. Under “read-out: pIC50 (converted)”, the IC50 is greater than 20 µM.
Consider `NS(=O)(=O)c1cc2c(cc1Cl)NC(C(Cl)Cl)NS2(=O)=O` (centres undefined) [TRICHLORMETHIAZIDE], for which the IC50 is greater than 20 µM. Besides, for the setting “read-out: pIC50 (converted)”, the IC50 is greater than 20 µM.
`CSc1nc2cc(Cl)c(Oc3cccc(Cl)c3Cl)cc2[nH]1` [TRICLABENDAZOLE] displayed an IC50 greater than 20 µM. The IC50 (read-out: pIC50 (converted)) is greater than 20 µM.
In turn, `O=C(Nc1ccc(Cl)cc1)Nc1ccc(Cl)c(Cl)c1` [TRICLOCARBAN] showed an IC50 greater than 20 µM. Further, the IC50 (read-out: pIC50 (converted)) is greater than 20 µM.
`CC[N+](CC)(CC)CCC(O)(c1ccccc1)C1CCCCC1` (centres undefined) [TRIDIHEXETHYL] returned an IC50 greater than 20 µM. Further, where the note is “read-out: pIC50 (converted)”, the IC50 was greater than 20 µM.
In turn, `NCCNCCNCCN` [TRIENTINE] returned an IC50 greater than 20 µM. Also, under “read-out: pIC50 (converted)”, the IC50 was greater than 20 µM.
With `CN1C(=O)CC(=O)N(c2ccccc2)c2cc(C(F)(F)F)ccc21` [TRIFLUBAZAM], the IC50 is greater than 20 µM. Besides, the IC50 (read-out: pIC50 (converted)) is greater than 20 µM.
Compound `O=C(CCCN1CCC(O)(c2cccc(C(F)(F)F)c2)CC1)c1ccc(F)cc1` [TRIFLUPERIDOL] gave an IC50 greater than 20 µM. The IC50 (read-out: pIC50 (converted)) is greater than 20 µM.
`CN(C)CCCN1c2ccccc2Sc2ccc(C(F)(F)F)cc21` [TRIFLUPROMAZINE] yielded an IC50 greater than 20 µM. For the same compound, the IC50 (read-out: pIC50 (converted)) was greater than 20 µM.
Turning to `O=c1[nH]c(=O)n([C@H]2C[C@H](O)[C@@H](CO)O2)cc1C(F)(F)F` [TRIFLURIDINE], the IC50 was greater than 20 µM. For the same compound, the IC50 (read-out: pIC50 (converted)) is greater than 20 µM.
`CC(=O)Oc1cc(C(F)(F)F)ccc1C(=O)O` [TRIFLUSAL] showed an IC50 greater than 20 µM. Moreover, the IC50 (read-out: pIC50 (converted)) is greater than 20 µM.
On to `C[n+]1cccc(C(=O)[O-])c1` [TRIGONELLINE], for which the IC50 was greater than 20 µM. The IC50 (read-out: pIC50 (converted)) is greater than 20 µM.
In the case of `OC(CCN1CCCCC1)(c1ccccc1)C1CCCCC1` (centres undefined) [TRIHEXYPHENIDYL], the IC50 was greater than 20 µM. Also, for the setting “read-out: pIC50 (converted)”, the IC50 is greater than 20 µM.
On to `C[C@]12CC[C@H]3[C@@H](CC[C@@]45O[C@@H]4C(O)=C(C#N)C[C@]35C)[C@@H]1CC[C@@H]2O` [TRILOSTANE], for which the IC50 was greater than 20 µM. Further, for the setting “read-out: pIC50 (converted)”, the IC50 was greater than 20 µM.
As to `COc1cc2c(N)nc(N3CCN(C(=O)OCC(C)(C)O)CC3)nc2c(OC)c1OC` [TRIMAZOSIN], the IC50 was greater than 20 µM. Besides, the IC50 (read-out: pIC50 (converted)) is greater than 20 µM.
The compound `CCC(COC(=O)c1cc(OC)c(OC)c(OC)c1)(c1ccccc1)N(C)C` (centres undefined) [TRIMEBUTINE] came in with an IC50 greater than 20 µM. Moreover, the IC50 (read-out: pIC50 (converted)) was greater than 20 µM.

Source of the values: ChEMBL document CHEMBL4651402, “Screening of ~5500 FDA-approved drugs and clinical candidates for anti-SARS-CoV-2 activity” (2021).
